The source made the active and inactive calls. The calls are words filed in the database; no cut-off is given here.
Experiments:
[1] = target: T1, Bile acid receptor (Homo sapiens) (UniProt Q96RI1); experiment: Agonist activity at FXR in human Hepg2 cells; type: cell-based
T1 sequence (whole entry): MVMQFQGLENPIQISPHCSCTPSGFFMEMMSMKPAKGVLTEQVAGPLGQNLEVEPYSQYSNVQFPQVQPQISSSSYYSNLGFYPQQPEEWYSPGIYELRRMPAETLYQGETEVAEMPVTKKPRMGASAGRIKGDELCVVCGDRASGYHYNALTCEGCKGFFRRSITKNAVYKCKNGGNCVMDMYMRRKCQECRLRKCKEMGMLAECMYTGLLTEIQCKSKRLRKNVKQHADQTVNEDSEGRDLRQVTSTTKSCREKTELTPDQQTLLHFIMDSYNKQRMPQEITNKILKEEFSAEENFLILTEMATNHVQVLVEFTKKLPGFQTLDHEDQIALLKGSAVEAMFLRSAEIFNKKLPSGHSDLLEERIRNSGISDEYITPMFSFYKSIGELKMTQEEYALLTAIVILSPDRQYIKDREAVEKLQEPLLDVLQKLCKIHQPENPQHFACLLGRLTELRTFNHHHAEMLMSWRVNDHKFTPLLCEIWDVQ

[2] = target: T1, Bile acid receptor (Homo sapiens); experiment: Agonist activity at FXR in human Caco2 cells; type: cell-based
[3] = target: T2, Bile acid receptor (Rattus norvegicus) (UniProt Q62735); experiment: Agonist activity at FXR in rat primary hepatocytes; type: cell-based
T2 sequence (whole entry): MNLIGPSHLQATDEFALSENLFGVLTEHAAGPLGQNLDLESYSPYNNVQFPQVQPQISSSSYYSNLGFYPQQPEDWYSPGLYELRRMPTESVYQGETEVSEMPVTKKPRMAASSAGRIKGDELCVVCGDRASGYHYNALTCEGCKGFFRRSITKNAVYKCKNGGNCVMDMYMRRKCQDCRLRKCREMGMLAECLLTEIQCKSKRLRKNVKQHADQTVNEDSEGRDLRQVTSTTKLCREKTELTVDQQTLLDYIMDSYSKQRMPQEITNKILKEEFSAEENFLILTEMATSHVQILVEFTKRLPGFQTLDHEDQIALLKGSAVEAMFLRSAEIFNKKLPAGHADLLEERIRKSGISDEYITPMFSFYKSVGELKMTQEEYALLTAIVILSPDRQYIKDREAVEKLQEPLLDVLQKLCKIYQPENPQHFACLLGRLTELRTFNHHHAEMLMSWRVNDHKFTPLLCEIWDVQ

[4] = target: T2, Bile acid receptor (Rattus norvegicus); experiment: Agonist activity at FXR in rat primary hepatocytes assessed as reduction in CYP7A1 mRNA expression at 50 uM; type: cell-based
[5] = target: T2, Bile acid receptor (Rattus norvegicus); experiment: Agonist activity at FXR in rat primary hepatocytes assessed as increase in BSEP mRNA expression at 50 uM; type: cell-based
[6] = target: T2, Bile acid receptor (Rattus norvegicus); experiment: Agonist activity at FXR in rat primary hepatocytes assessed as increase in SHP mRNA expression at 50 uM; type: cell-based
Jejunum = experiment: Drug accumulation in C57BL/6 mouse jejunum at 100 mg/kg, ig for 5 days by LC-MS/MS method; type: ADME, organism-based; settings: in vivo, po, 120 h
Liver = experiment: Drug accumulation in C57BL/6 mouse liver at 100 mg/kg, ig for 5 days by LC-MS/MS method; type: ADME, organism-based; settings: in vivo, po, 120 h
Mus musculus [7] = experiment: Induction of FXR activation in C57BL/6 mouse ileum assessed as reduction in FXR-mediated Cyp7A1 mRNA expression at 100 mg/kg, ig for 5 days by PCR method; type: functional, organism-based
Mus musculus [8] = experiment: Induction of FXR activation in C57BL/6 mouse ileum assessed as increase in FXR-mediated Bsep mRNA expression at 100 mg/kg, ig for 5 days by PCR method; type: functional, organism-based
Serum = experiment: Drug accumulation in C57BL/6 mouse serum at 100 mg/kg, ig for 5 days by LC-MS/MS method; type: ADME, organism-based; settings: in vivo, po, 120 h
Ileum = experiment: Drug accumulation in C57BL/6 mouse ileum at 100 mg/kg, ig for 5 days by LC-MS/MS method; type: ADME, organism-based; settings: in vivo, po, 120 h
[9] = Efflux ratio in human Caco2 cells at 20 uM by LC-MS/MS method; type: ADME, cell-based; settings: Caco-2
[10] = Apparent permeability from apical side to basolateral side in human Caco2 cells at 20 uM by LC-MS/MS method; type: ADME, cell-based; settings: Caco-2
[11] = Drug uptake in human Caco2 cells at 20 and 50 uM by LC-MS/MS method relative to initial level; type: ADME, cell-based; settings: caco-2, TDE = time-dependent effect
[12] = Efflux ratio in human Caco2 cells at 50 uM by LC-MS/MS method; type: ADME, cell-based; settings: Caco-2
[13] = Apparent permeability from basolateral to apical side in human Caco2 cells at 20 uM by LC-MS/MS method; type: ADME, cell-based; settings: Caco-2
[14] = Apparent permeability from basolateral to apical side in human Caco2 cells at 50 uM by LC-MS/MS method; type: ADME, cell-based; settings: Caco-2
[15] = Drug uptake in human Caco2 cells at 20 and 50 uM by LC-MS/MS method; type: ADME, cell-based; settings: Caco-2
[16] = Apparent permeability from apical side to basolateral side in human Caco2 cells at 50 uM by LC-MS/MS method; type: ADME, cell-based; settings: Caco-2
[17] = target: T1, Bile acid receptor (Homo sapiens); experiment: Binding affinity to FXR (unknown origin) relative to fexaramine
[18] = Solubility in DMSO/mineral oil medium; type: physicochemical
[19] = Drug uptake in human Caco2 cells at 20 and 50 uM by LC-MS/MS method after 3 hrs; type: ADME, cell-based; settings: caco-2, 3 h
Mus musculus [20] = experiment: Effect on FXR mRNA expression in C57BL/6 mouse kidney at 100 mg/kg, ig for 5 days by PCR method; type: ADME, organism-based; settings: in vivo, po, 120 h
Mus musculus [21] = experiment: Induction of FXR activation in C57BL/6 mouse ileum assessed as increase in FXR-mediated Shp mRNA expression at 100 mg/kg, ig for 5 days by PCR method; type: functional, organism-based
Mus musculus [22] = experiment: Effect on FXR mRNA expression in C57BL/6 mouse jejunum at 100 mg/kg, ig for 5 days by PCR method; type: ADME, organism-based; settings: in vivo, po, 120 h
Mus musculus [23] = experiment: Effect on FXR activation in C57BL/6 mouse kidney assessed as increase in FXR-mediated Shp mRNA expression at 100 mg/kg, ig for 5 days by PCR method; type: organism-based; settings: in vivo, po, 120 h
Mus musculus [24] = experiment: Effect on FXR activation in C57BL/6 mouse non ileum part of intestine assessed as increase in FXR-mediated Shp mRNA expression at 100 mg/kg, ig for 5 days by PCR method; type: organism-based; settings: in vivo, po, 120 h
Mus musculus [25] = experiment: Effect on FXR mRNA expression in C57BL/6 mouse duodenum at 100 mg/kg, ig for 5 days by PCR method; type: ADME, organism-based; settings: in vivo, po, 120 h
Mus musculus [26] = experiment: Effect on FXR activation in C57BL/6 mouse liver assessed as increase in FXR-mediated Shp mRNA expression at 100 mg/kg, ig for 5 days by PCR method; type: organism-based; settings: in vivo, po, 120 h
Intestine = experiment: Drug accumulation in C57BL/6 mouse intestine assessed as drug adherence to intestinal wall at 100 mg/kg, ig for 5 days by LC-MS/MS method; type: ADME, organism-based; settings: in vivo, po, 120 h
Mus musculus [27] = experiment: Effect on FXR mRNA expression in C57BL/6 mouse liver at 100 mg/kg, ig for 5 days by PCR method; type: ADME, organism-based; settings: in vivo, po, 120 h
Bile acid receptor = target: T3, Bile acid receptor (Homo sapiens, UniProt Q96RI1); experiment: Binding affinity to FXR (unknown origin)
T3 sequence (Q96RI1 whole entry): T1 sequence (whole entry)

Mus musculus [28] = experiment: Increase in FXR mRNA expression in C57BL/6 mouse ileum at 100 mg/kg, ig for 5 days by PCR method; type: functional, organism-based
Caco-2 = experiment: Cytotoxicity against human Caco2 cells at 100 uM incubated for 24 hrs by MTT assay; type: cell-based; settings: caco-2, 24 h

| Activity [1] | Activity [2] | Activity [3] | Activity [4] | Activity [6] | Drug uptake (Ileum) | efflux ratio at 20 µM [9] | Papp A→B at 20 µM [10] | efflux ratio at 50 µM [12] | Papp B→A at 20 µM [13] | Papp B→A at 50 µM [14] | Drug uptake [15] | Papp A→B at 50 µM [16] | Compound | Activity [5] | Activity (Mus musculus [7]) | Activity (Mus musculus [8]) | also measured |
| --- | --- | --- | --- | --- | --- | --- | --- | --- | --- | --- | --- | --- | --- | --- | --- | --- | --- |
| inactive | inactive | inactive |  |  |  |  |  |  |  |  |  |  | CNc1ccc2cc(C(=O)N(CC3CCCCC3)c3cccc(/C=C/C(=O)OC)c3)ccc2c1 |  |  |  |  |
| inactive | inactive | inactive |  |  |  |  |  |  |  |  |  |  | COC(=O)/C=C/c1cccc(N(CC2CCCCC2)C(=O)c2ccc3cc(N(C)C)ccc3c2)c1 |  |  |  |  |

Further lines, the compound ahead of its results:

| Compound | Activity [1] | Activity [2] | Activity [3] | Activity [4] | Activity [6] | Drug uptake (Ileum) | efflux ratio at 20 µM [9] | Papp A→B at 20 µM [10] | efflux ratio at 50 µM [12] | Papp B→A at 20 µM [13] | Papp B→A at 50 µM [14] | Drug uptake [15] | Papp A→B at 50 µM [16] | Activity [5] | Activity (Mus musculus [7]) | Activity (Mus musculus [8]) | also measured |
| --- | --- | --- | --- | --- | --- | --- | --- | --- | --- | --- | --- | --- | --- | --- | --- | --- | --- |
| COC(=O)/C=C/c1cccc(N(Cc2ccc(-c3ccc(N(C)C)cc3)cc2)C(=O)c2ccc3cc(N(C)C)ccc3c2)c1 | inactive | inactive |  | Active | Active |  |  |  |  |  |  |  |  | Active |  |  |  |
| COC(=O)/C=C/c1cccc(N(Cc2ccc(-c3ccc(N(C)C)cc3)cc2)C(=O)C2CCCCC2)c1 [FEXARAMINE] |  |  |  |  |  | Active | 0.87 | 27.7 ×10⁻⁶ cm/s | 1.14 | 24 ×10⁻⁶ cm/s | 873 ×10⁻⁶ cm/s | Active | 762 ×10⁻⁶ cm/s |  | Active | Active | Drug uptake (Jejunum): Active; Drug uptake (Liver): Active; Drug uptake (Serum): Active; Drug uptake [11]: Tde |
| CNc1ccc2cc(C(=O)N(Cc3ccc(-c4ccc(N(C)C)cc4)cc3)c3cccc(/C=C/C(=O)OC)c3)ccc2c1 | inactive | inactive |  | Active | Active | Active | 0.35 | 18.7 ×10⁻⁶ cm/s | 0.77 | 6.62 ×10⁻⁶ cm/s | 75 ×10⁻⁶ cm/s | Active | 97.6 ×10⁻⁶ cm/s | Active | Active | Active | Ratio [17]: 2000; solubility [18]: Insoluble; Drug uptake [19]: Active; Activity (Mus musculus [20]): Non-Toxic; Activity (Mus musculus [21]): Active; Activity (Mus musculus [22]): Non-Toxic; Activity (Mus musculus [23]): Non-Toxic; Activity (Mus musculus [24]): Non-Toxic; Activity (Mus musculus [25]): Non-Toxic; Activity (Mus musculus [26]): Non-Toxic; Drug uptake (Intestine): Active; Activity (Mus musculus [27]): Non-Toxic; Kd (Bile acid receptor): 48.7 µM; Activity (Mus musculus [28]): Active; Activity (Caco-2): Non-Toxic |

— ChEMBL document CHEMBL4052684, “A novel intestinal-restricted FXR agonist” (Bioorg Med Chem Lett, 2017)
